Experiments:
[1] = test system: BALB/c mice; test: Toxicity (LD50) after intraperitoneal injection; format: in vivo; settings: mg/ml injected vaccine formulation
Description: (§1) The efficacy and side effects (such as toxicity, carcinogenic properties, and autoimmunogenic properties) of phytol and reduced phytol or phytanol (H-phytol) as adjuvants were compared with those of other known adjuvants that serve as the gold standard. Groups of 8-12 week old and gender matched BALB/c mice (n=21) were injected intraperitoneally with phytol (25-50 μl=20-40 mg/ml injected vaccine formulation) to determine toxicity. Similar studies were done with reduced phytol (phytanol) using 11 BALB/c mice. LD50 for phytol is 40 mg/ml and for phytanol >40 mg/ml. For comparison, equivalent concentrations/volumes of other Freund's adjuvants, a mineral oil pristane and a control (phosphate buffered saline) were tested for toxicity in terms of splenomegaly and local granuloma.

[2] = test system: BALB/c mice; test: Toxicity in terms of splenomegaly and local granuloma; format: in vivo
Description: with adjuvants: A, (PBS); B, […]; C, Incomplete Freund's adjuvant (IFA); D, phytol; E, Complete Freund's adjuvant (CFA); and F, reduced phytol (phytanol).
as §1, with “[…].” for “LD50 for phytol is 40 mg/ml and for phytanol >40 mg/ml. For comparison, equivalent concentrations/volumes of other Freund's adjuvants, a mineral oil pristane and a control (phosphate buffered saline) were tested for toxicity in terms of splenomegaly and local granuloma.”

[3] = test system: DNA; test: Autoimmune reactivity assessment (anti-DNA antibody response); format: in vivo, mice
Source text: In each set of experiments, groups of 5 mice were primed with an environmental antigen phthalate (Lim and Ghosh, Immunology, 110:482-492, 2003) as a conjugate (mg/ml) with keyhole limpet hemocyanin (KLH) in different adjuvants as shown in FIG. 5.

[4] = test system: 2C3 B-cell lymphoma; test: Induction of tumor-specific cytotoxic T cells (51Cr-release CTL assay); format: in vivo; settings: BALB/c mice, intraperitoneal adjuvant, live 2C3 tumor challenge, FIG. 8
Description: A number of mice (BALB/c mice) were divided into four groups of six mice each. Each group was treated with intraperitoneal injections of one of […] adjuvant preparations. The adjuvant preparations were selected from IFA, phytol, and phytanol. A control group was injected intraperitoneally with PBS. Five days after the initial injections, each of the mice was injected with a live tumor challenge (5×10^6 of 2C3 B-cell lymphoma). Splenocytes were obtained form the tumor-challenged mice at the eighth day after the initial injections. The collected splenocytes were stimulated with killed 2C3 cells in vitro for five days. Effector cells were harvested from this preparation after five days of incubation. The effector cells were used in the 51Cr-release cytotoxic T lymphocyte (CTL) assay according to the procedure published in Chakrabarti D. and Ghosh S. K.: Cellular Immunology 144:445-464, 1996; Santra S. and Ghosh S. K.: cancer Immunol. Immunotherpy, 44:291-300, 1997; Laxmanan S., Stuart G. W. and Ghosh S. K. Ghosh, Cancer Immunol. Immunotherapy, 50:437-444, 2001; So-Yon Lim and Swapan K. Ghosh, Immunology, 110:482-492, 2003.

[5] = test system: phthalate; test: Anti-phthalate antibody response by ELISA on phthalate-BSA coated plates; format: in vivo; settings: BALB/c mice primed intraperitoneally with phthalate-KLH emulsified in adjuvant, boosters at 10-day intervals, FIG. 6
Description: Experimental BALB/c mice (n=6) were grouped and primed intraperitoneally with phthalate-KLH conjugates emulsified in each adjuvant. Control groups of mice were immunized with phosphate buffered saline (PBS). Boosters were given at 10-day intervals. The mice were bled through retro-orbital veins five days after each immunization. (reference describing this type of experiments: So-Yon Lim and Swapan K. Ghosh, Immunology, 110:482-492, 2003)
ELISA was performed to assess anti-phthalate humoral responses on phthalate-BSA coated plates.

SMILES: C/C(=C\CO)CCC[C@H](C)CCC[C@H](C)CCCC(C)C [phytol]
- LD50 [1]: 40 mg/mL
- granuloma ([2]; BALB/c mice, local granuloma): milder than CFA
- splenomegaly ([2]; BALB/c mice, spleens, FIGS. 3A-3F): comparable splenomegaly
- splenomegaly ([2]; BALB/c mice, spleens, FIGS. 3A-3F, listed as Phytol): milder than CFA
- anti-DNA response (autoimmune response) ([3]; mice primed with phthalate-KLH in the adjuvant, FIG. 5): statistically insignificant anti-DNA response
- induction of tumor-specific killer T cells [4]: induction of tumor-specific killer T cells

SMILES: CC(C)CCC[C@@H](C)CCC[C@@H](C)CCCC(C)CCO (stereo partly drawn) [phytanol, 3,7,11,15-tetramethyl-1-hexadecanol]
- LD50 [1]: > 40 mg/mL
- granuloma ([2]; mouse, in vivo): no granuloma
- splenomegaly ([2]; mouse, in vivo): none
- anti-DNA response (autoimmune response) ([3]; mouse, in vivo): statistically insignificant anti-DNA response
- anti-phthalate humoral response [5]: better than commonly used CFA/IFA and is as good as commercially available Ribi Adjuvant system (RAS)
- induction of tumor-specific killer T cells [4]: induction of tumor-specific killer T cells
